{"source": "patent US20080207605A1", "about": "“Combination therapy for the treatment of liver diseases” (priority 2007, published 2008)", "key": {"male C57B1/6 mice [1]": {"tested_on": "male C57B1/6 mice", "experiment": "Fas driven model of liver damage (Jo-2 antibody), plasma ALT activity", "type": "in vivo", "details": "10 mg/kg PO; 6 hours after Jo-2 IV; average of 2 studies; p<0.05 in each study", "procedure": "(§1) In vivo efficacy of RO-113-0830 was assessed using male C57B1/6 mice (Simonsen Labs) in two well-established models of liver damage. The mice were allowed to acclimate for at least three days.\nIn a Fas driven model of liver damage, an activating antibody to Fas (Jo-2) was administered IV. Six hours later, animals were anesthetized with Nembutal (50 mg/kg IP), and blood was taken by cardiac puncture. Plasma ALT activity was determined using a kit from Sigma-Aldrich."}, "[2]": {"tested_on": "Huh7 human hepatoma cell line (the 21-5 cell line)", "details": "read-out: IC50 for cytotoxicity (concentration decreasing cell viability by 50%); 72 hr; host cell rRNA levels by TaqMan RT-PCR", "source_text": "Cells were processed 72 hr later when the cells were still sub-confluent."}, "C57/BL6 wild-type mice": {"tested_on": "C57/BL6 wild-type mice", "experiment": "Bile duct ligation model of liver fibrosis", "type": "in vivo", "details": "10 mg/kg by gavage once a day", "procedure": "The bile duct ligation model is a well characterized model of liver fibrosis. Briefly, C57/BL6 wild-type mice 6 to 8 weeks of age were subjected to bile duct ligation (BDL) for 14 days: Sham-operated wild type mice were used as controls. Either RO 113-0830 or CMC (carboxymethylcellulose) were administered by gavage in a dose of 10 mg/kg body weight once a day. Hepatocyte apoptosis was quantified by the TUNEL assay and immunofluorescence for activated caspases 3/7. Liver injury was assessed by histopathology, and quantification of bile infarcts. Hepatic fibrosis was assessed by Sirius red staining and quantitative morphometry. Real-time polymerase chain reaction (PCR) was used to measure mRNA transcripts for collagen 1alpha (I) and alpha-smooth muscle actin."}, "full-length HCV replicon": {"tested_on": "full-length HCV replicon", "experiment": "HCV RNA replicon antiviral evaluation assay", "type": "cell-based, Hepatitis C virus", "details": "72 hr; HCV RNA replicon levels by TaqMan RT-PCR; read-out: EC50 (concentration inhibition virus replication by 50%)", "description": "The assay was conducted as described by Pietschmann, T. et al., supra.\nHuman interferon alpha-2b was included in each run as a positive control compound. Subconfluent cultures of the ET line were plated out into 96-well plates that were dedicated for the analysis of cell numbers (cytotoxicity) or antiviral activity and the next day drugs were added to the appropriate wells. Cells were processed 72 hr later when the cells were still sub-confluent. HCV RNA replicon levels and the toxic concentration of drug that reduces cell numbers, as indicated by host cell ribosomal RNA (rRNA) levels, were assessed by TaqMan RT-PCR. The EC50 (concentration inhibition virus replication by 50%), IC50 (concentration decreasing cell viability by 50%) and S150 (selective index: IC50/EC50) values were calculated."}, "male C57B1/6 mice [3]": {"tested_on": "male C57B1/6 mice", "experiment": "TNF-α model of liver injury (TNFα/D-Gln), plasma ALT activity", "type": "in vivo", "details": "PO by gavage 30 minutes before D-Gln/TNFα insult; blood 6 hours later; average from 4 studies", "procedure": "(§2) TNF-α is a cytokine that is implicated in inducing liver injury in a variety of acute and chronic liver diseases such as chronic HCV and acute liver failure. An exemplary in vivo model to test pharmacological agents against TNF-α induced injury is the TNF-α/D-Gal model of liver injury in mice. In this model, mice are treated with TNF-α/D-Gal and compound is administered to evaluate its ability to protect against liver damage. The compound is administered either before, at the time of or after the treatment with TNF-α/D-Gal, and followed for a period of approximately 6 hours. Allowing this model to persist past 6 hours is a variation used to determine the improved survival afforded by compound treatment.\nas §1\nIn the TNF-α model of liver injury, D-Galactosamine (D-Gln) (800 mg/kg) and TNFα (20 or 40 μg/kg) were injected IP. RO-113-0830 (0.001-30 mg/kg) was administered PO by gavage 30 minutes before insult. Six hours later, animals were anesthetized with Nembutal (50 mg/kg IP), and blood was taken by cardiac puncture. Plasma ALT activity was determined using a kit from Sigma-Aldrich."}, "male C57B1/6 mice [4]": {"tested_on": "male C57B1/6 mice", "experiment": "TNF-α model (TNFα/D-Gln), 24 hour survival", "type": "in vivo", "details": "TNFα/D-Gln insult; average from 3 studies; p=0.03 vs control (27±7.3%)", "procedure": "as §2, §1\nTo determine a benefit on survival, TNF-α model, D-Galactosamine (D-Gln) (800 mg/kg) and TNF-α (20 or 40 μg/kg) were injected IP, and mice were allowed to survive for 24 hours post insult. All morbid mice were euthanized with 125 mg/kg of Nembutal IP. The average 24 hour survival from 3 studies was 27±7.3% and. 55±7.6% (p=0.03) in the TNFα/D-Gln control mice and RO-113-0830-treated mice, respectively."}}, "note": "pEC50, pIC50: −log10 of the molar value.", "data": [{"smiles": "O=C(NO)C1(CS(=O)(=O)c2ccc(Oc3ccc(Cl)cc3)cc2)CCOCC1", "note": "[RO-113-0830]", "values": [{"measurement": "reduction of Fas-induced elevation in plasma ALT activity", "setting": "male C57B1/6 mice [1]", "value": 50, "unit": "%"}, {"measurement": "pIC50", "setting": "[2]", "value": "~4.60"}, {"measurement": "reduction of Sirius red staining of hepatic collagen", "setting": "C57/BL6 wild-type mice; 14 days of BDL", "value": 3, "unit": "fold"}, {"measurement": "reduction in the number of bile infarcts vs vehicle treated BDL mice", "setting": "C57/BL6 wild-type mice; 14 days of BDL, histologic examination", "value": "> 70", "unit": "%"}, {"measurement": "decrease in TUNEL-positive hepatocytes vs vehicle", "setting": "C57/BL6 wild-type mice; 14 days of BDL, p<0.01", "value": 3, "unit": "fold"}, {"measurement": "decrease in caspase 3/7-positive hepatocytes vs vehicle", "setting": "C57/BL6 wild-type mice; 14 days of BDL, p<0.01", "value": 5, "unit": "fold"}, {"measurement": "reduction of hepatic alpha-smooth muscle actin mRNA vs vehicle-treated BDL animals", "setting": "C57/BL6 wild-type mice; 14 days of BDL, real-time PCR", "value": "> 60", "unit": "%"}, {"measurement": "reduction of hepatic collagen I mRNA vs vehicle-treated BDL animals", "setting": "C57/BL6 wild-type mice; 14 days of BDL, real-time PCR", "value": "> 60", "unit": "%"}, {"measurement": "overall animal survival following 14 days of BDL", "setting": "C57/BL6 wild-type mice; p<0.05", "value": "significantly enhanced"}, {"measurement": "pEC50", "setting": "full-length HCV replicon", "value": 7.15}, {"measurement": "ED50 for decrease of plasma ALT activity", "setting": "male C57B1/6 mice [3]", "value": "0.26 ± 0.08", "unit": "mg/kg"}, {"measurement": "24 hour survival", "setting": "male C57B1/6 mice [4]", "value": "55±7.6", "unit": "%"}]}]}
